We go through one substance from patent US20230159620A1, “COMPOSITIONS AND METHODS OF TREATMENT FOR VASCULAR DISEASES AND THROMBOSIS” (Washington University, priority 2021, published 2023).

The assay concerns platelets. How it is done:
Complete blood counts (CBC) and washed platelet counts were determined using a hematology analyzer Element HT5 (Heska, Loveland). […] For flow cytometry, diluted whole blood or isolated platelets were pre-incubated with their respective fluorescent antibodies for 15 minutes and fixed. For murine whole blood: CD41-VioBlue, CD61-PE (Mitlenyi Biotec, Bergisch Gladbach, Germany), CD42b-DL649, GPVI-FITC (Emfret, Eibelstadt, Germany) and for human whole blood and isolated platelets: CD41-FITC, CD61-APC, CD42b-PE (Biolegend, San Diego), GPVI-BV421 617 (BD, Franklin Lakes). Platelet surface receptor levels were quantified by flow cytometry on a 618 CytoFlex analyzer.

“SVEP1: recombinant murine SVEP1 extracellular matrix protein with Myc and poly-histidine tag, expressed in 293F cells”: where the note is “platelets from mice compared to humans”, the “platelet aggregation and agglutination” value is given as “notably milder”. For the setting “soluble recombinant SVEP1, human whole blood”, the “platelet aggregation (decrease in whole blood platelet count)” value is “induced spontaneous platelet aggregation and agglutination”.
